Data set [1] relates to Janus kinase (JAK) family of enzymes, non-JAK enzymes, G-protein coupled receptors, ion channels and transporters. Put plainly: Affinity/potency profiling at JAK, non-JAK enzymes, receptors, ion channels and transporters.
In another data set the target is TYK2 (Homo sapiens, UniProt P29597). Put plainly: Biochemical JAK kinase assay (LanthaScreen) Tyk2.
Data set [2] is described as follows: Metabolic stability of comparison compounds in rat colon content. The class given is in vitro ADME. As to conditions: 10 μM in rat colonic content, up to 120 min. The procedure:
Colonic fecal content was harvested from a naïve male Sprague Dawley rat and was diluted 1:10 (1 gram to 9 mL phosphate buffer) and then homogenized using a handheld Omni Tissue Master. […] A 5 μL aliquot of diluted test compound was spiked into 300 μL of rat colonic content homogenate to begin the reaction at 37° C. Aliquots (50 μL) were removed from the incubation at the following time points (0, 15, 50, 85, and 120 min) and added into 200 μL of ACN with 3% formic acid and an internal standard molecule. […] All samples were centrifuged at 2000×g for 10 min after which 50 μL of supernatant was diluted into 150 μL of water and analyzed using a Thermo Q-Exactive LC-MS system. GraphPad Prism and Microsoft Excel were used to tabulate and plot the data.

For another data set, the target named is JAK2 (Homo sapiens, UniProt O60674). Put plainly: Biochemical JAK kinase assay (LanthaScreen) JAK2. (In general: In TR-FRET formats the signal depends on donor and acceptor labels being close together.)
Chain of JAK2 (O60674 whole entry): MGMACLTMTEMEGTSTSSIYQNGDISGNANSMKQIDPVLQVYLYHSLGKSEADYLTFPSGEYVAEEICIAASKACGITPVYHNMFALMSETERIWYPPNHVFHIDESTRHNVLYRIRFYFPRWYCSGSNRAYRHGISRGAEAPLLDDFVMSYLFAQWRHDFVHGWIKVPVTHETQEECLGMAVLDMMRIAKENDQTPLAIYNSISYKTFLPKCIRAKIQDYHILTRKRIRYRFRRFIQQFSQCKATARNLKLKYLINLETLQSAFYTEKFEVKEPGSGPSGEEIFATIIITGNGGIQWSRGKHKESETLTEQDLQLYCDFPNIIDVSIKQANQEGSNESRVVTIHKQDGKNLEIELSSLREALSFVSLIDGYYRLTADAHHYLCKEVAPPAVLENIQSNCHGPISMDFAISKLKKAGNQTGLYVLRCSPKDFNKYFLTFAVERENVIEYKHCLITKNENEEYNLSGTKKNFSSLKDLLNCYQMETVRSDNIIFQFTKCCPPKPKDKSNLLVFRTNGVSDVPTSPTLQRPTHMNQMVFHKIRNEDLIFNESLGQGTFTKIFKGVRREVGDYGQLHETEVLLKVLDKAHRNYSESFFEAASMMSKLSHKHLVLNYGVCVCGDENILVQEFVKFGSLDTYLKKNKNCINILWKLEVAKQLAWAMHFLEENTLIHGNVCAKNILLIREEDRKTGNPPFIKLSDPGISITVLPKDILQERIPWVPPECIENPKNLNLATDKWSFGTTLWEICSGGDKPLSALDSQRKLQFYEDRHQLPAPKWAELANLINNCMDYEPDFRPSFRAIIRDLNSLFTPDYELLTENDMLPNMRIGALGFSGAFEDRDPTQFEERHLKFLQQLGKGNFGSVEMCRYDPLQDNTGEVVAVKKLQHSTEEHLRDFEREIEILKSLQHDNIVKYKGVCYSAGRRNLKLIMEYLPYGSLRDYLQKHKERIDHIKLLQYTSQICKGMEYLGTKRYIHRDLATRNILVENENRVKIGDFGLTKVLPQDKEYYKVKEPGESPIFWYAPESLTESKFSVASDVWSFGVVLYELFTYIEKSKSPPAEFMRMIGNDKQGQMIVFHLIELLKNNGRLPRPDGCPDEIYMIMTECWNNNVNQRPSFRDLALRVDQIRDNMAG
The nature of data set [3]: Oral pharmacokinetics of compound 1 in cynomolgus monkey. The format is in vivo. As to conditions: oral administration of the prodrug.
Data set [4] relates to oxazolone-induced colitis. Put plainly: Mouse model of oxazolone-induced colitis. The class given is in vivo. The procedure: Oxazolone-induced colitis is an experimental model that has a histological resemblance to human ulcerative colitis (Heller et al. […], 2002, 17, 629-638). Adult BALB/C mice (25-28 g, 9-12 weeks of age) from BioNeeds (India) were used in the assay. On day 1, animals were lightly anesthetized with isoflurane and the hairs between the shoulder were carefully removed before oxazolone (6 mg/mouse, 100 μL, 4:1 acetone: olive oil formulation) or vehicle solution was slowly applied for skin sensitization. Six days after skin sensitization, the mice were fasted overnight, anesthetized with ketamine and xylazine administered IP, and a 1 mL syringe filled with oxazolone solution, was inserted carefully ˜3.8 cm into the colon of the mouse. Animals were kept in a head down position and oxazolone (0.5 mg/50 μL/mouse in 50% ethanol) or 50% ethanol/saline was rectally instilled very slowly over a minute. The mice were held vertically (head down) for another minute to ensure that the entire oxazolone solution remained inside the colon. Drug treatment (PO, BID or TID) or vehicle was initiated the evening prior to the oxazolone intrarectal (IR) challenge. On both first (Day 1) and second (Day 2) days post-oxazolone IR challenge, the Disease Activity Index (DAI) was assessed by treatment-blinded experimenters for each mouse, according to the following subscores: stool consistency (0, normal; 2, loose; 4, diarrhea), gross bleeding and hemoccult test (0, absence; 2, blood tinged; 4, overt blood presence), and weight loss (0, none; 1, 1%-5%; 2, 6%-10%; 3, 11%-15%; 4, more than 15%); DAI=average of (stool consistency+blood presence+weight loss scores).
An area-under-the-curve (AUC) calculation based on total DAI scores was performed to track disease progression during the course of the experiment. AUC for each experimental group was calculated as: AUC=[(Day 1−Day 0)*Average (DAI Score of Day 0 & Day 1)]+[(Day 2−Day 1)*Average (DAI Score of Day 1 & Day 2)]. A Student's t-test compared the DAI AUC score of the vehicle/vehicle and vehicle/oxazolone groups to evaluate whether disease was induced following oxazolone treatment. This was followed by a one way ANOVA, with Dunnett's post hoc test, to compare the DAI AUC score of the vehicle/oxazolone and test compound/oxazolone groups. Statistical significance was defined by an α level set at p<0.05.

The next data set addresses T1, JAK3 (Homo sapiens, UniProt P52333).
T1 sequence (P52333 1-1124): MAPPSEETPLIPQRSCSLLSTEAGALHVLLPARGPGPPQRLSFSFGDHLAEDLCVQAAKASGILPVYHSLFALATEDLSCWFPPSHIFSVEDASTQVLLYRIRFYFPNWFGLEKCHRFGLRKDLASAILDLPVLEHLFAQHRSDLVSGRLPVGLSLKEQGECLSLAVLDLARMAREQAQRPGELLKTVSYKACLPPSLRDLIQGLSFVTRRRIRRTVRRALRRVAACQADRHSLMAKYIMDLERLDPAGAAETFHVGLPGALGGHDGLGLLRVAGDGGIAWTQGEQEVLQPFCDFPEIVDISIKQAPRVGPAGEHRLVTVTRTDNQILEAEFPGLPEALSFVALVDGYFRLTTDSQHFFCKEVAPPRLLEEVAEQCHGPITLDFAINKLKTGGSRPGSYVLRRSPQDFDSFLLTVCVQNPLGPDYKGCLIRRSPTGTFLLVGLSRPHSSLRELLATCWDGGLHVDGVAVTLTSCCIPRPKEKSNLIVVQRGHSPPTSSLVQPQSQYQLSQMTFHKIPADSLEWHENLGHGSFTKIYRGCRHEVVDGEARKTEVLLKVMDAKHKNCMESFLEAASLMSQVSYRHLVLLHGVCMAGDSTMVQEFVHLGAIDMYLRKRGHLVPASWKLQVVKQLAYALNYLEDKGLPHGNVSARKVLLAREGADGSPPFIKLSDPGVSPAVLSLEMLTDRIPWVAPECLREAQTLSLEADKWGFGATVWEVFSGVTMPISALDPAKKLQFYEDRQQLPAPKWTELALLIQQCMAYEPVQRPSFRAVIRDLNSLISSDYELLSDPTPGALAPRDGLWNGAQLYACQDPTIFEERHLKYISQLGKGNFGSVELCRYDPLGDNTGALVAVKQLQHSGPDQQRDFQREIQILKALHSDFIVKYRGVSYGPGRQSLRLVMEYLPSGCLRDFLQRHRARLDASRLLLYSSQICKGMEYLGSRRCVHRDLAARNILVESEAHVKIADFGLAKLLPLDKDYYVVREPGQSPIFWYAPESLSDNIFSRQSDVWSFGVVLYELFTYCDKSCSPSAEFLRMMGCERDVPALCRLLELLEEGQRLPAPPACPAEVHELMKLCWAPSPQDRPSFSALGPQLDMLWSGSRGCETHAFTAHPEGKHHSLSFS
Briefly: Biochemical JAK kinase assay (LanthaScreen) JAK3.

Some results are limits rather than exact numbers.

Chain of TYK2 (P29597 whole entry): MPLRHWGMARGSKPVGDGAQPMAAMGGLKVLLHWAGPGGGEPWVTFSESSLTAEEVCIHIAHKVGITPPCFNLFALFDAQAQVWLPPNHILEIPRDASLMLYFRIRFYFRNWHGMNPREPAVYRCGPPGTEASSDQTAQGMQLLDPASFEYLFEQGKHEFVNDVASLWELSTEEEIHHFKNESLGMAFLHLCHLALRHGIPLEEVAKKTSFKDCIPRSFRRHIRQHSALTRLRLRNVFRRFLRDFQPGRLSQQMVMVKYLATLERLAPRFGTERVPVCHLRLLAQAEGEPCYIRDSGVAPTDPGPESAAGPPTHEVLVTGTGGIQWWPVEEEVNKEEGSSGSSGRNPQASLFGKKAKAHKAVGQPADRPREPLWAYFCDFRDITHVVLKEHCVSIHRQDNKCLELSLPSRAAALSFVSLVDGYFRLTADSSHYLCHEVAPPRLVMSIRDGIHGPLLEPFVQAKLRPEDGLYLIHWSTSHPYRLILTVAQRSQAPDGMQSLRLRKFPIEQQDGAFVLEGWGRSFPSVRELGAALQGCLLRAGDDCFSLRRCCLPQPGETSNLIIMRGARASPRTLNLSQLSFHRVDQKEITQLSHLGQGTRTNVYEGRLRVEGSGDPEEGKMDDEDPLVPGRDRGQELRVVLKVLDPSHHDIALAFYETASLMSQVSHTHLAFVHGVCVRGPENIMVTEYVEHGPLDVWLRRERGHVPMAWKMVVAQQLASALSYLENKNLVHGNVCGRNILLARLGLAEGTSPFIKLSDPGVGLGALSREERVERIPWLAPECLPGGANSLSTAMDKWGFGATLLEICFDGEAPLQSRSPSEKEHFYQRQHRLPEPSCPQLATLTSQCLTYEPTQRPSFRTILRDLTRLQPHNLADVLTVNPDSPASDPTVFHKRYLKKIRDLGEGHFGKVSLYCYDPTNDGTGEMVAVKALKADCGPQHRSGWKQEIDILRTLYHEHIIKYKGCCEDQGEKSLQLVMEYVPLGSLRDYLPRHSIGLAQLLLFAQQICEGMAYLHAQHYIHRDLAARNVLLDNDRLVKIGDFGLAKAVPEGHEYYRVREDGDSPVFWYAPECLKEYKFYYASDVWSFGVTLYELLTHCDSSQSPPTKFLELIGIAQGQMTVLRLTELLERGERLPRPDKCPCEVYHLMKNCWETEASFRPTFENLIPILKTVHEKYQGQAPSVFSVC
Method for JAK2: (§1) A panel of four LanthaScreen JAK biochemical assays (JAK1, 2, 3 and Tyk2) were carried in a common kinase reaction buffer (50 mM HEPES, pH 7.5, 0.01% Brij-35, 10 mM MgCl2, and 1 mM EGTA). Recombinant GST-tagged JAK enzymes and a GFP-tagged STAT1 peptide substrate were obtained from Life Technologies.
(§2) Serially diluted compounds were pre-incubated with each of the four JAK enzymes and the substrate in white 384-well microplates (Corning) at ambient temperature for 1 h. ATP was subsequently added to initiate the kinase reactions in 10 μL total volume, with 1% DMSO. […] The JAK1 kinase activity was also tested at 1 mM ATP concentration. […] The plates were allowed to incubate at ambient temperature for 1 h before being read on the EnVision reader (Perkin Elmer).
(§3) For dose-response analysis, percent inhibition data were plotted vs. compound concentrations, and IC50 values were determined from a 4-parameter robust fit model with the Prism software (GraphPad Software). Results were expressed as pIC50 (negative logarithm of IC50) and subsequently converted to pKi (negative logarithm of dissociation constant, Ki) using the Cheng-Prusoff equation.
Method for JAK3: as §1, §2, §3
Method for TYK2: as §1, §2, §3

`C[C@@H]1CCN(C(=O)CC#N)C[C@@H]1N(C)c1ncnc2c1ccn2C(=O)N(C)CCN(C)C(=O)OCc1ccc(O[C@@H]2O[C@H](C(=O)O)[C@@H](O)[C@H](O)[C@H]2O)c([N+](=O)[O-])c1` [Compound 1, (2S,3S,4S,5R,6S)-6-(4-((((2-(4-(((3R,4R)-1-(2-cyanoacetyl)-4-methylpiperidin-3-yl)(methyl)amino)-N-methyl-7H-pyrrolo[2,3-d]pyrimidine-7-carboxamido)ethyl)(methyl)carbamoyl)oxy)methyl)-2-nitrophenoxy)-3,4,5-trihydroxytetrahydro-2H-pyran-2-carboxylic acid]: in data set [1], the “affinity for, or potency at, JAK enzymes, non-JAK enzymes, GPCRs, ion channels and transporters” value is “no significant affinity for, or potency at”. The Ki on TYK2 is more than 1000 nM; at JAK2, more than 631 nM; on JAK3 it was more than 158 nM. In addition, the “generation of active metabolite from the pro-drug” value in data set [2] is given as “generated measurable levels”. Further, the “increase in tofacitinib concentration in cecum, proximal, and distal colon tissue versus oral tofacitinib” value in data set [3] is on record as “five- to seven-fold”. Also, in data set [4] (3, 10, and 60 mg/kg, PO, BID, similar magnitude to tofacitinib 30 and 60 mg/kg), the “reversal of oxazolone-induced colitis (DAI AUC score)” value is reported as “significant reversal”. Also, the “In vivo efficacy (oxazolone colitis), effective dose” value in data set [4] (Effective dose that exhibits a comparable pharmacological effect in the oxazolone model compared to its vehicle) was determined as 3 mg/kg.

A word on the Ki: it is the dissociation constant of the complex between target and ligand, obtained from inhibition or displacement.

(Values after patent US20210179655A1, “Prodrugs of a JAK Inhibitor Compound for Treatment of Gastrointestinal Inflammatory Disease” (THERAVANCE BIOPHARMA R&D IP, LLC, priority 2015, published 2021).)
